# Key:
# Format in all cases: in vivo
# [1] = system: 3rd-instar larvae of Chilo suppressalis (Walker); test: Joint toxicity of I-72 + organophosphorus insecticides, rice seedling dipping, Example 15, Table 15; conditions: 3rd-instar larvae, rice seedling dipping, 48 h, A = compound I-72, B = diazinon, read-out: LC50
# Method in brief: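 Rice seedling sections dipped 10 s in acetone/0.1% Tween 80 dilutions of single agents or mixtures, air-dried and fed to lab-reared 3rd-instar larvae (10 per dish, 3 replicates). Mortality scored after 48 h, Abbott-corrected; LC50 with 95% limits by regression, and co-toxicity coefficients by the Sun Y-P method.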
# [2] = system: 2nd-instar nymphs of Frankliniella occidentalis Pergande; test: Joint toxicity of I-72 + carbosulfan, leaf spraying, Example 22, Table 22; conditions: 2nd-instar nymphs, kidney bean leaf spraying, 48 h, A = compound I-72, B = carbosulfan, read-out: LC50
# Protocol: Test subject: 2nd-instar nymphs of Frankliniella occidentalis Pergande, a sensitive strain reared indoors.
# (§1) Preparation of the pesticide solution: according to different test requirements, the test samples in Table 1 were accurately weighed respectively with an electronic analytical balance. The technical pesticides were dissolved in acetone, and then diluted with 0.1% Tween 80 water into a series of pesticide solutions with a certain concentration gradient according to the experimental design dosage.
# Test conditions: temperature: 25-27° C., humidity: RH 60%, and illumination: L:D=14:10
# Experimental method: the spraying method was adopted. The kidney bean leaves cultivated in the greenhouse were selected, and the petioles were wrapped with moist degreased cotton and sealing film. They were evenly sprayed with the pesticide solution in the order from low dosage to high dosage according to the experimental design, placed in a 6-cm-diameter Petri dish with filter paper. After natural air-drying in the shade, the test insects were introduced, with 20 insects for each treatment and 3 replicates. In addition, a blank control was set up. […] The corrected mortality rate was calculated using the Abbott's formula, and the DPS data processing software was used for statistical analysis to calculate the toxicities (LC50 values) of the single test pesticides and the mixtures under the test ratios. […]
# [3] = system: adult Tetranychus cinnabarinus (Boisduval); test: Joint toxicity of I-72 + spirodiclofen, potted-seedling spraying, Example 25, Table 25; conditions: Tetranychus cinnabarinus, A = compound I-72, B = spirodiclofen, 72 hours, read-out: LC50
# Protocol: Test target: adult Tetranychus cinnabarinus (Boisduval), a sensitive strain reared indoors.
# as §1, with “samples” for “samples in Table 1”
# Experimental method: the activity of the mixture against the adult Tetranychus cinnabarinus (Boisduval) was determined by adopting the potted-seedling spraying method. First, the adult Tetranychus cinnabarinus of uniform size were transferred onto the leaves of kidney bean seedlings at the stage when the first pair of true leaves was fully expanded. After the adult mites had stabilized, the base number was counted. Then, the uniform spraying was performed with the pesticide solution in the order from low to high dose according to the experimental design, with 1.5 mL for each seedling and 3 replicates for each treatment. […]
# (§2) The treated test materials were placed in an observation room, and the temperature, humidity and illumination of the observation room could be adjusted as needed. […] Then, the co-toxicity coefficient of each ratio was calculated using the Sun Y-P method to evaluate the mixing effect, as in Example 1.
# [4] = system: 3rd-instar larvae of Yponomeuta evonymallus (Linnaeus); test: Joint toxicity of I-72 + thiamethoxam, Example 66, Table 66; conditions: A = compound I-72, B = thiamethoxam; leaf dipping; 72 hours
# Protocol: Test target: 3rd-instar larvae of Yponomeuta evonymallus (Linnaeus).
# as §1, with “samples” for “samples in Table 1”
# Experimental method: first, Hylotelephium spectabile leaves were selected and dipped in the prepared pesticide solution for 10 s in the order from low dosage to high dosage according to the experimental design. After natural air-drying in the shade, they were placed in a 9-cm-diameter Petri dish with filter paper, and uniform and healthy test insects were introduced, with 10 insects for each treatment and 3 replicates for each treatment. In addition, a blank control was set up.
# The treated test materials were placed in an observation room, and the temperature, humidity and illumination of the observation room could be adjusted as needed. The number of dead and live insects was investigated 72 hours later.
# [5] = system: Aphis citricola van der Goot nymphs; test: Joint toxicity of I-72 + nicotine, Example 72, Table 72; conditions: A = compound I-72, B = nicotine, apple leaf spraying, 48 hours
# Protocol: Test target: Aphis citricola van der Goot nymphs.
# as §1, with “samples” for “samples in Table 1”
# Experimental method: first, apple leaves with uniform and consistent Aphis citricola van der Goot were selected, with about 30-40 insects on each leaf. Then, they were evenly sprayed with the pesticide solution in the order from low dosage to high dosage according to the experimental design, with 1.5 mL for each leaf and 3 replicates for each treatment. In addition, a blank control was set up.
# as §2, with “needed. The number of dead and live insects was investigated 48 hours later.” for “needed.”, “effect (the same” for “effect,”, “1).” for “1.”
# Empoasca pirisuga = test: Field efficacy trial of I-72 and Beauveria bassiana in a tea garden, Example 88, Table 88; conditions: spraying
# Protocol: This trial was performed in a tea garden in Yuhang District, Hangzhou. The spraying method was used for pesticide application. The investigation method was to take samples at 5 points, with 2 fixed plants at each point. A total of 10 plants were investigated in each plot, and the trial was replicated four times. The number of Empoasca vitis nymphs on the back of 100 tender leaves in each plot was randomly investigated. The amount of the pesticide solution sprayed was 75 L per mu. The base number was investigated before the pesticide application, and the number of live Empoasca pirisuga in each treatment sample point was investigated 3, 7 and 14 days after the pesticide application. The calculation method for the efficacy of the test pesticides was the same as that in Example 38.
# Test pesticides: A: wettable powder of Beauveria bassiana with 40 billion spores/gram (Jiangxi Tianren Ecology Co., Ltd.); and B: compound I-72 (dissolved in acetone, 0.1% Tween 80 was added, and a 10% stock solution was prepared for use).
compound,measurement,setting,value
CN(C(=O)c1ccc2c(c1)OC(F)(F)O2)c1cccc(C(=O)Nc2c(Br)cc(C(F)(C(F)(F)F)C(F)(F)F)cc2OC(F)F)c1F [Compound I-72],LC50,[1],1.76 µg/mL
same,LC50,[2],2.15 µg/mL
same,LC50,[3],35.1 µg/mL
same,LC50,[4],4.5752 µg/mL
same,LC50,[5],3.06 µg/mL
same,Control efficacy 3 days after pesticide application,Empoasca pirisuga; dose 15 ml,57.0%
same,Control efficacy 7 days after pesticide application,Empoasca pirisuga; dose 15 ml,75.8%
same,Control efficacy 14 days after pesticide application,Empoasca pirisuga; dose 15 ml,74.2%
same,Control efficacy 3 days after pesticide application,Empoasca pirisuga; dose 30 ml,57.5%
same,Control efficacy 7 days after pesticide application,Empoasca pirisuga; dose 30 ml,77.7%
same,Control efficacy 14 days after pesticide application,Empoasca pirisuga; dose 30 ml,79.3%
same,Control efficacy 3 days after pesticide application,Empoasca pirisuga; dose 45 ml,62.5%
same,Control efficacy 7 days after pesticide application,Empoasca pirisuga; dose 45 ml,78.1%
same,Control efficacy 14 days after pesticide application,Empoasca pirisuga; dose 45 ml,78.9%

# — patent US20260198495A1, “BINARY INSECTICIDE COMPOSITION AND USE THEREOF” (SHENYANG SINOCHEM AGROCHEMICALS R & D CO., LTD., priority 2022, published 2026)
